# Values of other authors as cited in patent US20030229111A1, “Naltrexone hydrochloride compositions” (priority 2002, published 2003).
# Assays:
# [1] = in vivo, po
smiles,measurement,setting,value
"O=C1CC[C@@]2(O)[C@H]3Cc4ccc(O)c5c4[C@@]2(CCN3CC2CC2)[C@H]1O5 [naltrexone, Naltrexone]",time within which rapidly absorbed,[1],≤ 1 h
same,protein binding,,approximately 21%
